Test results published in patent US20080249042A1, “All-Trans-Retinol: All-Trans-13,14-Dihydroretinol Saturase and Methods of Its Use” (UNIVERSITY OF WASHINGTON, priority 2004, published 2008).

What was measured:
mouse RXR-α = target: T1, mouse RXR-α (Mus musculus, UniProt P28700); experiment: RXRE (DR1) activation assay, HEK-293S cells with pRXRE-BLUE and RXR-α; assay type: cell-based; details: cotransfected with mouse RXR-α, 48 h
T1 construct: The RXR-α open reading frame was then subcloned into the pcDNA3.1 Directional TOPO vector; expressed in transfected cells; host or cells: N-acetylglucosaminyltransferase I-negative HEK-293S
T1 sequence (P28700 1-467): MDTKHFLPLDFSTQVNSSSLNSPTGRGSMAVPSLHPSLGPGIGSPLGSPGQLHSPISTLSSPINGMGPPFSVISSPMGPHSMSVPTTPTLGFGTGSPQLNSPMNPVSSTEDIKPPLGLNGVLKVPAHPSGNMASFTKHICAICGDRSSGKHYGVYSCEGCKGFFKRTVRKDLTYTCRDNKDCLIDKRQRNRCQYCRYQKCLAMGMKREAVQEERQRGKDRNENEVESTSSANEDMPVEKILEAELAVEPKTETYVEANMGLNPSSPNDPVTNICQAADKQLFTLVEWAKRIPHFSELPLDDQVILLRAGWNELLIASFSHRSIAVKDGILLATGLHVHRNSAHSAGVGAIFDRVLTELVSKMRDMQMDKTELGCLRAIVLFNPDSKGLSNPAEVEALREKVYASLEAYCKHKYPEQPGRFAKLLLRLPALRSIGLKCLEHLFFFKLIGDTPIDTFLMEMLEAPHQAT

[1] = Liver retinoids of Lrat-/- mice 3 h after gavage with all-trans-DROL; assay type: in vivo, mouse; details: 3 h post-gavage
From the text: Metabolism of Retinoids in Vivo. All animal experiments employed procedures approved by the University of Washington and conformed to recommendations of the American Veterinary Medical Association Panel on Euthanasia and recommendations of the Association of Research for Vision and Ophthalmology. Animals were maintained on a 12-h light and 12-h dark cycle. All manipulations were done under dim red or infrared light (>560 nm). Most experiments used 6-12-week-old mice. Lrat−/− mice were genotyped as described previously. Batten, et al. J. Biol. Chem. 279:10422-10432, 2004. Animals were maintained on a control chow diet up to 1 h prior to oral gavage. The appropriate amount of all-trans-ROL palmitate, all-trans-DROL, or all-trans-RA was dissolved in vegetable oil and administered by oral gavage 3 h prior to analysis.
Analysis of Retinoids. Liver (1 g) from retinoid gavaged or naive mice was homogenized in 2 ml of 137 mM NaCl, 2.7 mM KCl, and 10 mM sodium phosphate (pH 7.4) for 30 s using a Polytron homogenizer. 10 μl of 5 M NaOH was added to 3 ml of the ethanolic extract, and the nonpolar retinoids were extracted using 5 ml of hexane. The extraction was repeated, and the organic phases were combined, dried under vacuum, resuspended in hexane, and examined by normal phase HPLC using a normal phase column (Beckman Ultrasphere Si 5μ, 4.6×250 mm). […] The HPLC elution conditions were […], 100% buffer A for 40 min, 100% buffer B for 10 min, and 10 min equilibration in buffer A. The elution profiles of RA and DRA were monitored using an online diode array detector set at 350 and 290 nm, respectively. […] The measured area of absorbance was converted to picomoles based on a calibration of the HPLC columns using a known amount of all-trans-RA or all-trans-ROL (Sigma) and all-trans-DROL or all-trans-DRA (synthetic standards). The extraction efficiency was monitored by spiking a tissue sample with [^3H]RA (PerkinElmer Life Sciences) and monitoring the radioactivity recovered from the HPLC column. […]

CC1=C(/C=C/C(C)=C/C=C/C(C)CC(=O)O)C(C)(C)CCC1 (stereo not drawn) [all-trans-DRA, all-trans-13,14-dihydroretinoic acid]
Activation of RXR-mediated transcription (DR1 elements) (mouse RXR-α): very weak RXR activator
Level in liver after gavage with all-trans-DROL [1]: significant levels
